The assay concerns the target T1, chicken gizzard smooth muscle myosin subfragment-1 chemically crosslinked to cardiac or skeletal actin (Gallus gallus, UniProt P10587).
T1 construct: chicken gizzard smooth muscle myosin subfragment-1; from tissue; host or cells: chicken gizzard
The assay can be described thus: Smooth muscle myosin ATPase dose response assay (pyruvate kinase/horseradish peroxidase/pyruvate oxidase-coupled, amplex red fluorescence). It is filed as biochemical. The conditions noted are these: read-out: IC50 Arithmetic Mean. A digest of the protocol: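 Lead-optimization format: ATPase coupled via pyruvate kinase, pyruvate oxidase and peroxidase, pH 7.00 at 22° C, with 0.15 mM ATP, 100 mM KCl, 2 mM MgCl2, 2 mM phosphate and 0.1 mM amplex red (final). Crosslinked S1 titrated empirically for set hydrolysis rate; fluorescence (ex 480/em 615 nm) dose curves fit 4-parameter for IC50.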

A word on the pIC50: it is the negative decadic logarithm of the IC50, by convention in mol/L.

pIC50: −log10 of the molar value.

T1 sequence (P02607 2-151): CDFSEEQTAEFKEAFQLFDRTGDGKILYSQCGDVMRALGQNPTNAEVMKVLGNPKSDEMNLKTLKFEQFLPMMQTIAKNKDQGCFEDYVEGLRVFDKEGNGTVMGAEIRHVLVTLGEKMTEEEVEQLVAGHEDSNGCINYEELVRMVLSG
T1 sequence (P10587 84-789): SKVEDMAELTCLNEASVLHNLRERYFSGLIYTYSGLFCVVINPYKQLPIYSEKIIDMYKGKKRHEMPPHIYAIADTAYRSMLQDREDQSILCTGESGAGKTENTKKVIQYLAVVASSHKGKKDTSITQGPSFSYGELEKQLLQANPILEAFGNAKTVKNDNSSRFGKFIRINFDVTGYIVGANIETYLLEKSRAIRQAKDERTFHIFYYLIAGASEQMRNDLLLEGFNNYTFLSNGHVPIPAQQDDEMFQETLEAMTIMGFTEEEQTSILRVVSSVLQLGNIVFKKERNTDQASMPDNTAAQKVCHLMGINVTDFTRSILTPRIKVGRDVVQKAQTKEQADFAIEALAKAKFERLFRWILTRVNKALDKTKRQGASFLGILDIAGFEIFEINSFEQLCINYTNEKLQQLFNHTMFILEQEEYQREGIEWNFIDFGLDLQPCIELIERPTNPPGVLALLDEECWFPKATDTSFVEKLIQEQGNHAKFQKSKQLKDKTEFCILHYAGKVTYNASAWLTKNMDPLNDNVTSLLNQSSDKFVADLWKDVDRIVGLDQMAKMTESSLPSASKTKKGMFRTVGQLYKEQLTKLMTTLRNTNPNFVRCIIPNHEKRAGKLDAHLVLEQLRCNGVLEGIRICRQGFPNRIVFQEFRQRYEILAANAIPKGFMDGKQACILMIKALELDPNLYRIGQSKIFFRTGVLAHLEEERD

Consider `CC(=O)N1CCC(CNC(=O)c2ccc(-c3ccccc3C#N)nc2NCCc2cccc(F)c2)C1` (stereo not drawn) [N-[(1-acetylpyrrolidin-3-yl)methyl](6-(2-cyanophenyl)-2-{[2-(3-fluorophenyl)ethyl]amino}(3-pyridyl))carboxamide], for which the pIC50 is 6.48.

In the case of `Cn1ccc(CNC(=O)c2ccc(-c3ccccc3)nc2NCCc2ccccn2)n1` [N-[(1-methylpyrazol-3-yl)methyl]{6-phenyl-2-[(2-(2-pyridyl)ethyl)amino](3-pyridyl)}carboxamide], the pIC50 is 5.56.

As for `Cn1nccc1CNC(=O)c1ccc(-c2ccccc2)nc1NCCc1ccccn1` [N-[(1-methylpyrazol-5-yl)methyl]{6-phenyl-2-[(2-(2-pyridyl)ethyl)amino](3-pyridyl)}carboxamide], the pIC50 was 5.89.

As to `CC(C)(C)OC(=O)NCCn1ccc(CNC(=O)c2ccc(-c3cc[nH]n3)nc2NCCc2cccc(F)c2)n1` [N-[(1-{2-[(tert-butoxy)carbonylamino]ethyl}pyrazol-3-yl)methyl](2-{[2-(3-fluorophenyl)ethyl]amino}-6-pyrazol-3-yl(3-pyridyl))carboxamide], the pIC50 was 4.92.

Turning to `CC(C)(C)OC(=O)NCCn1ccc(CNC(=O)c2ccc(-c3ccccc3C#N)nc2NCCc2cccc(F)c2)n1` [N-[(1-{2-[(tert-butoxy)carbonylamino]ethyl}pyrazol-3-yl)methyl](6-(2-cyanophenyl)-2-{[2-(3-fluorophenyl)ethyl]amino}(3-pyridyl))carboxamide], the pIC50 was 5.56.

As to `CC(C)(C)OC(=O)NCCn1nccc1CNC(=O)c1ccc(-c2ccccc2C#N)nc1NCCc1cccc(F)c1` [N-[(1-{2-[(tert-butoxy)carbonylamino]ethyl}pyrazol-5-yl)methyl](6-(2-cyanophenyl)-2-{[2-(3-fluorophenyl)ethyl]amino}(3-pyridyl))carboxamide], the pIC50 is 5.66.

`CC(C)(C)OC(=O)NCCN1CCCC1CNC(=O)c1ccc(-c2ccccc2C#N)nc1NCCc1cccc(F)c1` (stereo not drawn) [N-[(1-{2-[(tert-butoxy)carbonylamino]ethyl}pyrrolidin-2-yl)methyl](6-(2-cyanophenyl)-2-{[2-(3-fluorophenyl)ethyl]amino}(3-pyridyl))carboxamide]: the pIC50 is 5.32.

On to `Cn1cc(-c2ccc(C(=O)NCC3CCN(CCCNC(=O)OC(C)(C)C)C3=O)c(NCCc3cccc(F)c3)n2)cn1` (stereo not drawn) [N-[(1-{3-[(tert-butoxy)carbonylamino]propyl}-2-oxopyrrolidin-3-yl)methyl](2-{[2-(3-fluorophenyl)ethyl]amino}-6-(1-methylpyrazol-4-yl)(3-pyridyl))carboxamide], for which the pIC50 was 6.16.

Take `CC(C)(C)OC(=O)NCCCN1CCC(CNC(=O)c2ccc(-c3cn[nH]c3)nc2NCCc2cccc(F)c2)C1=O` (stereo not drawn) [N-[(1-{3-[(tert-butoxy)carbonylamino]propyl}-2-oxopyrrolidin-3-yl)methyl](2-{[2-(3-fluorophenyl)ethyl]amino}-6-pyrazol-4-yl(3-pyridyl))carboxamide]: the pIC50 was 6.23.

Turning to `CC(C)(C)OC(=O)NCCCN1CCC(CNC(=O)c2ccc(-c3ccccc3C#N)nc2NCCc2cccc(F)c2)C1=O` (stereo not drawn) [N-[(1-{3-[(tert-butoxy)carbonylamino]propyl}-2-oxopyrrolidin-3-yl)methyl](6-(2-cyanophenyl)-2-{[2-(3-fluorophenyl)ethyl]amino}(3-pyridyl))carboxamide], the pIC50 was 6.98.

On to `CC(C)(C)OC(=O)NCCCN1C(=O)CCCC1CNC(=O)c1ccc(-c2ccccc2C#N)nc1NCCc1cccc(F)c1` (stereo not drawn) [N-[(1-{3-[(tert-butoxy)carbonylamino]propyl}-6-oxo(2-piperidyl))methyl](6-(2-cyanophenyl)-2-{[2-(3-fluorophenyl)ethyl]amino}(3-pyridyl))carboxamide], for which the pIC50 was 6.06.

As for `CC(C)(C)OC(=O)NCCCN1C(=O)CCCCC1CNC(=O)c1ccc(-c2ccccc2C#N)nc1NCCc1cccc(F)c1` (stereo not drawn) [N-[(1-{3-[(tert-butoxy)carbonylamino]propyl}-7-oxoazaperhydroepin-2-yl)methyl](6-(2-cyanophenyl)-2-{[2-(3-fluorophenyl)ethyl]amino}(3-pyridyl))carboxamide], the pIC50 was 4.77.

The record behind these values is US7932270B2 (Cytokinetics, Inc., priority 2006, dated 2011).
